From ChEMBL document CHEMBL1201862, “PubChem BioAssay data set” (2004)
Several values for one entry are separate records, joined by “and”; a condition that tells them apart may be missing. Equal entries are not always repeated. Activity calls are given as the source filed them.

Assays:
[1] = biological target: T1, Heat shock factor protein 1 (Mus musculus, UniProt P38532); assay: HSF1 potentiators in luciferase reporter cells, confirmation, cell-based, NIH3T3, luminescence, dose retest (AID 435004); assay type: functional;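 note: stress induced by proteasome inhibitor MG132 added 30 min after compound; luciferase reporter driven by HSF1 response element in NIH3T3 cells; actives raise luminescence as potentiators of the MG132 stress response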
T1 sequence (P38532 whole entry): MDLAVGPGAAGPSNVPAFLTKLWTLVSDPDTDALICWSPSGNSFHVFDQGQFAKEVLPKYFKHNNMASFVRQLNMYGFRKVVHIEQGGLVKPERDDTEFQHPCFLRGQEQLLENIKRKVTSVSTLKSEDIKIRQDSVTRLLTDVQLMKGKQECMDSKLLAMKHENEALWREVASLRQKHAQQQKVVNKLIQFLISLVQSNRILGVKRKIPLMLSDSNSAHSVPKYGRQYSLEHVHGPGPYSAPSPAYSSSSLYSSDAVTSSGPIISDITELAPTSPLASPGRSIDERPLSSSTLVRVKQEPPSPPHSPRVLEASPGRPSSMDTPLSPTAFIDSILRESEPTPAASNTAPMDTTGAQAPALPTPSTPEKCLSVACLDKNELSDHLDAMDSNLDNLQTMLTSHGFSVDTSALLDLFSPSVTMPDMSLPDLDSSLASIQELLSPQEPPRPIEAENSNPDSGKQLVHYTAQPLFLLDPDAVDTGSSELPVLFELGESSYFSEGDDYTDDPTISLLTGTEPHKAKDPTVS

[2] = test system: H9c2; assay: cells; assay type: functional, cell-based; conditions: Rattus norvegicus, H9c2, Myocardium;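 note: confirmatory concentration-response retest of ultra-high-throughput screening hits for modulation of myocardial damage; cell death induced by hydrogen peroxide oxidative stress; compound pretreatment for 60 min then peroxide exposure for 2 h; potency is for protecting the cells against peroxide damage rather than for killing them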
[3] = biological target: Cytochrome P450 2D6 (Homo sapiens, UniProt P10635);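 note: CYP2D6 member of a cytochrome P450 panel assay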
Chain of Cytochrome P450 2D6 (P10635 whole entry): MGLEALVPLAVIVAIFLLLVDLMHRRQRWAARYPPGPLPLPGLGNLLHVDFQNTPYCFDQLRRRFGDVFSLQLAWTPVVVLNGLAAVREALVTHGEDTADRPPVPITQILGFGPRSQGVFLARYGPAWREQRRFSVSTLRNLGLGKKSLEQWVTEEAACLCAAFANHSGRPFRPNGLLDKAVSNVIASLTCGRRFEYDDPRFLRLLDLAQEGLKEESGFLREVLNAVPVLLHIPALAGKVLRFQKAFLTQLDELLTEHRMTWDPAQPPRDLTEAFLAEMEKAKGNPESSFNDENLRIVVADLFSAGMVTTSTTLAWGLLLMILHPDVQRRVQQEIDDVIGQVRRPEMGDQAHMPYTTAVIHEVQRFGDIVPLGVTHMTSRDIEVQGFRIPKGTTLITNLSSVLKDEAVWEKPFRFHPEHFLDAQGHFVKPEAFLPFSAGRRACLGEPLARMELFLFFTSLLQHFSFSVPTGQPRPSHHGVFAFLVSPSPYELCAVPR

[4] = biological target: T2, Cytochrome P450 1A2 (Homo sapiens, UniProt P05177);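 note: PubChem cytochrome P450 panel assay, CYP1A2 panel member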
T2 sequence (P05177 whole entry): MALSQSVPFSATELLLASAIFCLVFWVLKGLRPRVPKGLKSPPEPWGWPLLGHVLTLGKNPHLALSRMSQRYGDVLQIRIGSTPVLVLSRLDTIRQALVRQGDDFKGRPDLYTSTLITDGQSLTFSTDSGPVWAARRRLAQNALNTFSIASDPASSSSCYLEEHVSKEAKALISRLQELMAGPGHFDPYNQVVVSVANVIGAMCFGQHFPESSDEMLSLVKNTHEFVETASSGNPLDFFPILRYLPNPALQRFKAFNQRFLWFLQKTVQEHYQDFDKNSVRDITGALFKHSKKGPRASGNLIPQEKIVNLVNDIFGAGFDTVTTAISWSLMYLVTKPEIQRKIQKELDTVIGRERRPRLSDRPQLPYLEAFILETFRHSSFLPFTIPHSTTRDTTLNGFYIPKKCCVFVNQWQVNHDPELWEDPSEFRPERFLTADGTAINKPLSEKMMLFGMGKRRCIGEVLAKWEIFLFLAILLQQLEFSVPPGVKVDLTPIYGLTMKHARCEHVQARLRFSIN

[5] = Luminescence Cell-Based Dose Confirmation HTS to Identify Activators of 5'UTR Stem-Loop Driven Alpha-Synuclein mRNA Translation in H4 Neuroglioblastoma Cells. [Related pubchem assays: 1829 (Project Summary), 1814 (Primary HTS)]; assay type: functional
[6] = Luminescence Cell-Based Dose Response HTS to Identify Activators of Luciferase Translation or Activity in H4 […] Cells. [Related pubchem assays: 1829 (Project Summary), 1814 (Primary HTS)]; assay type: functional
[7] = test system: H4; assay: Luminescence Cell-Based Dose Response HTS to Identify Activators of 5'UTR Stem-Loop Driven Prion Protein mRNA Translation in H4 Neuroglioblastoma Cells. [Related pubchem assays: 1829 (Project Summary), 1814 (Primary HTS)]; assay type: functional; conditions: Homo sapiens
[8] = biological target: Cytochrome P450 2C19 (Homo sapiens, UniProt P33261); assay: Cytochrome panel assay with activity outcomes. Panel member name: p450-cyp2c19 Compounds with AC50 equal or less than 10 uM are considered active; assay type: functional
Chain of Cytochrome P450 2C19 (P33261 whole entry): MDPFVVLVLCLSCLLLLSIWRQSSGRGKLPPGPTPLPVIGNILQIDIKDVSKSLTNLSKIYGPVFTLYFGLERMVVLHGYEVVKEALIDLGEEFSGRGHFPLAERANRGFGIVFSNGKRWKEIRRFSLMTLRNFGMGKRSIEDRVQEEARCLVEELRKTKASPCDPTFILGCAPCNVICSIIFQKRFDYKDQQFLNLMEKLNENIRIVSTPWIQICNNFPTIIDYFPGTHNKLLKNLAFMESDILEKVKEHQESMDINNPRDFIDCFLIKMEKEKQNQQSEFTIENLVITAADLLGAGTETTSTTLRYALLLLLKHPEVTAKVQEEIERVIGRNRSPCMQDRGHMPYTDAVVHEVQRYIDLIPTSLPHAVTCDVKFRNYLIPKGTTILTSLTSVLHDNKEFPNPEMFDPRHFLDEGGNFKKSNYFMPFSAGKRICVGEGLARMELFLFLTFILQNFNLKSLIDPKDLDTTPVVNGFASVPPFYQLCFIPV

[9] = biological target: Cytochrome P450 3A4 (Homo sapiens, UniProt P08684);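 note: CYP3A4 tested as one member of a cytochrome P450 panel screen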
Chain of Cytochrome P450 3A4 (P08684 whole entry): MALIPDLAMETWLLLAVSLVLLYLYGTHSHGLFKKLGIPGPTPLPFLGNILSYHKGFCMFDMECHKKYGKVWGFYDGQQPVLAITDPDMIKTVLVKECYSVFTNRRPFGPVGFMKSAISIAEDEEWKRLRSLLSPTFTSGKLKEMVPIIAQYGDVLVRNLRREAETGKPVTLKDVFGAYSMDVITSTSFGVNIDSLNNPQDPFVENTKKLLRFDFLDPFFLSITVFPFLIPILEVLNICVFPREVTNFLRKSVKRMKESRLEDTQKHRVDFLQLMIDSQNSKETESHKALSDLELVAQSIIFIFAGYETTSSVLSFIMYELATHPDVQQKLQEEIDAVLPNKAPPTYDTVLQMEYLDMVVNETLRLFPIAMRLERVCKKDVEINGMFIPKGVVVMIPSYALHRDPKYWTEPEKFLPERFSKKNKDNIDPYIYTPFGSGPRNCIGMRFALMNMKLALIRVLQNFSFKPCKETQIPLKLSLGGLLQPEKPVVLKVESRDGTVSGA

For `Cc1ccc(/C=C/C(=O)Nc2ccc(S(=O)(=O)Nc3cc(C)nc(C)n3)cc2)cc1`, the EC50 [1] was > 260 µM (inactive).

In the case of `Cc1nc(SCC(=O)N2CCN(c3ccccc3)CC2)c2oc3ccccc3c2n1`, the IC50 [2] was > 79 µM (inactive).

In the case of `COc1ncc2nc(-c3cccc(C#N)c3)c(=O)n(CCC#N)c2n1`, the AC50 [3] was 15.8 µM (inconclusive) and the AC50 [4] was 20 µM (inconclusive).

In the case of `CC(C)(C)c1ccc(C(=O)NC(=S)Nn2cnnc2)cc1`, the EC50 [5] was > 120 µM (not active), the EC50 [6] was 69.9 µM (active) and the EC50 [7] was 30.1 µM (active).

With `CC(C)C(=O)Nc1ccc(NC(=O)c2cccnc2)cn1` the AC50 ([8]; read-out: AC50) was 7.08 µM (inconclusive).

In the case of `CN1CCN(c2ncncc2-c2cccnc2)CC1`, the AC50 [3] was 2.51 µM (inconclusive), the AC50 [4] was 25.1 µM (inconclusive) and the AC50 [9] was 12.6 µM (inconclusive).

With `O=[N+]([O-])c1ccc(S(=O)(=O)Cc2ccccc2)c2nonc12` the AC50 [3] was 6.31 µM (inconclusive).

For `CCOC(=O)c1cnc(-c2ccccc2)nc1Oc1ccc(C)cc1`, the EC50 [1] was > 260 µM (inactive).

For `CN1CCN(CC(=O)N2c3ccccc3Sc3cc4ccccc4cc32)CC1`, the AC50 [3] was 3.16 µM (inconclusive) and the AC50 [9] was 3.98 µM (inconclusive).

In the case of `CC(C)c1ccc(N2C(=O)[C@@H]3Cc4ccccc4CN3C2=O)cc1`, the EC50 [5] was > 120 µM (not active), the EC50 [6] was 45 µM (active) and the EC50 [7] was > 120 µM (not active).

In the case of `Cc1cc(SCC(=O)NCCN2C(=O)CSC2=O)nc2ccccc12`, the EC50 [5] was > 120 µM (not active), the EC50 [6] was > 120 µM (not active) and the EC50 [7] was > 120 µM (not active).

For `Cc1nn(CCOc2ccccc2)c(=O)n1-c1c(F)cccc1F`, the EC50 [5] was 15.3 µM (active), the EC50 [6] was > 120 µM (not active) and the EC50 [7] was 32.2 µM (active).

In the case of `CC[N+](C)(CC)CCN1C(=O)c2ccccc2S1(=O)=O`, the AC50 [8] was “inconclusive”.

In the case of `COC(=O)c1ccccc1S(=O)(=O)N(Cc1ccco1)Cc1cc2cc(OC)ccc2nc1O`, the IC50 [2] was > 79 µM (inactive).

In the case of `COC(=O)c1cc(S(=O)(=O)N2CCN(c3ccc([N+](=O)[O-])cc3)CC2)c[nH]1`, the EC50 [1] was > 260 µM (inactive).

In the case of `COc1cc2[nH]c(C(=O)Nc3ccc(F)cc3)cc2c(OC)c1OC`, the EC50 [5] was > 120 µM (not active), the EC50 [6] was 9.27 µM (active) and the EC50 [7] was > 120 µM (not active).

With `CC(OC(=O)/C=C/c1ccc2ccccc2n1)C(=O)NCc1ccccc1` (stereo not given) the EC50 [1] was 13.3 µM (active).

For `CC(C)C(=O)N1CCN(c2ccccc2NC(=O)c2cccc(Cl)c2)CC1`, the AC50 [3] was 15.8 µM (inconclusive), the AC50 [4] was 20 µM (inconclusive) and the AC50 [9] was 12.6 µM (inconclusive).

With `COc1cc2c(cc1NC(=O)CSc1nccn1C)oc1ccccc12` the EC50 [5] was 13 µM (active), the EC50 [6] was 7.9 µM (active) and the EC50 [7] was 27.6 µM (active).

For `CCn1ncc2c1C(=O)NC1c3ccccc3C(=O)N21` (stereo not given), the IC50 [2] was 32 µM (inactive).

For `CC(C)NC(=O)N1CC2(CCN(C(=O)c3ccco3)CC2)C1`, the AC50 [3] was 12.6 µM (inconclusive).

For `COc1cccc(-c2ccc3ncnc(NCCNC(C)=O)c3c2)c1`, the AC50 [3] was 39.8 µM (inconclusive).

In the case of `CCOc1ccc(-n2cc(C(=O)N3CCC(C)CC3)c3cc(OC)c(OC)cc3c2=O)cc1`, the EC50 [1] was > 260 µM (inactive).

With `C=CCN1C(=O)NC(=O)/C(=C(/CC)Nc2ccc3c(c2)CCC3)C1=O` the EC50 [1] was > 260 µM (inactive).

In the case of `O=C(CSc1nn(-c2ccc(F)cc2)c(=S)s1)N1CCN(C(=O)c2ccco2)CC1`, the EC50 [1] was > 260 µM (inactive).

In the case of `Cc1cc(NC(=O)NC(=O)c2ccccc2)no1`, the EC50 [5] was 3.66 µM (active), the EC50 [6] was 7.68 µM (active) and the EC50 [7] was 42.3 µM (inconclusive).

For `O=C(CSC1CC(=O)N(CC(c2ccccc2)c2ccccc2)C1=O)Nc1ccc(Cl)cc1` (stereo not given), the AC50 [3] was 2 µM (inconclusive) and the AC50 [4] was 35.5 µM (inconclusive).

In the case of `COc1cccc(C2C(C(N)=O)=C(C)Nc3nc(-c4cccc(Cl)c4)nn32)c1` (stereo not given), the EC50 [1] was 71.9 µM (active).

In the case of `CC1(C)Cc2nc(NCCN3CCOCC3)c(C#N)cc2CO1`, the EC50 [1] was > 260 µM (inactive).

With `CC1SCC(=NOCc2ccccc2)CS1` (stereo not given) the EC50 [5] was 14.5 µM (active), the EC50 [6] was 17.7 µM (active) and the EC50 [7] was 18.2 µM (active).

For `Cc1cccc(NC(=O)CSc2nc(O)c3c(C)cc(C)nc3n2)c1`, the AC50 [3] was 15.8 µM (inconclusive).

In the case of `Cc1ccc(S(=O)(=O)N(C)C)cc1NC(=O)COC(=O)c1c(C)noc1C`, the EC50 [1] was > 260 µM (inactive).

In the case of `Cn1c(C(=O)NCc2cccs2)cc2c(=O)n(C)c3ccccc3c21`, the IC50 [2] was > 79 µM (inactive).

In the case of `COc1cccc(NC(=O)CN(C)C(=O)Cc2nnc(O)c3ccccc23)c1`, the IC50 [2] was > 79 µM (inactive).

For `CCCN1CCC(=NNc2ccc(C(=O)O)cc2)CC1`, the EC50 [5] was 7.27 µM (active), the EC50 [6] was 30.4 µM (active) and the EC50 [7] was 10.7 µM (active).

In the case of `COc1ccc(-c2cn3c(C)c(C(=O)NC(C)(C)C)sc3n2)cc1`, the EC50 [5] was 1.06 µM (active), the EC50 [6] was 31.5 µM (active) and the EC50 [7] was > 120 µM (not active).

With `Cc1ccc(C(=O)NC2CCCN(c3ccc(C(F)(F)F)cn3)C2)cn1` (stereo not given) the EC50 [1] was > 260 µM (inactive).

In the case of `O=C(/C=C/c1ccc(Cl)cc1)NCCN1CCOCC1`, the AC50 [8] was “inconclusive”.

For `COC(=O)c1ccc(N(CC(=O)NC2CCCCC2)C(=O)CNC(=O)c2ccco2)cc1`, the EC50 [1] was > 260 µM (inactive).

With `CN(CC(=O)Nc1ccccc1Br)C(=O)Cn1[nH]c(=O)c2ccccc2c1=O` the IC50 [2] was > 79 µM (inactive).

With `CC(OC(=O)CCc1nc(O)c2ccccc2n1)C(=O)Nc1ccc2c(c1)OCO2` (stereo not given) the IC50 [2] was 39.1 µM (inactive).

With `CS(=O)(=O)Nc1ccc(-c2ccc3nccn3c2)cc1` the IC50 [2] was > 79 µM (inactive).

For `COc1ccc(C=CC(=O)c2ccc3cc(OC)c(OC)cc3c2)cc1OC`, the IC50 [2] was > 79 µM (inactive).

With `O=C1[C@H]2[C@@H](c3ccc(C(F)(F)F)cc3)N[C@]3(CCCN(Cc4ccc(F)cc4)C3=O)[C@H]2C(=O)N1Cc1ccccc1` the IC50 [2] was > 79 µM (inactive).

For `COc1ccccc1NC(=O)COc1ccc(/C=N/NC(=O)c2cccnc2)cc1`, the IC50 [2] was 17.2 µM (active).

With `COc1cc(/C=N/N2C(=O)c3ccccc3NC2(C)c2cccc([N+](=O)[O-])c2)cc(Br)c1O` (stereo not given) the EC50 [1] was 34.1 µM (active).

In the case of `O=C(Nc1ccccc1)N[C@H]1C[C@H](C(=O)O)Nc2cc(Cl)cc(Cl)c21`, the AC50 ([8]; read-out: AC50) was 25.1 µM (inconclusive), the AC50 [4] was 39.8 µM (inconclusive) and the AC50 [9] was 25.1 µM (inconclusive).

With `O=C1/C(=C\c2ccc(Br)o2)S/C(=N/c2ccccc2)N1c1ccccc1` the AC50 ([8]; read-out: AC50) was 7.94 µM (inconclusive).

With `O=[N+]([O-])c1ccc(N/N=C2\CC3CC=CC23)cc1` (stereo not given) the EC50 [5] was 15.2 µM (active), the EC50 [6] was 13.2 µM (active) and the EC50 [7] was 24.3 µM (active).

In the case of `COC(=O)c1ccc(/N=C/c2c(C(F)(F)F)n[nH]c2O)cc1`, the EC50 [5] was > 120 µM (not active), the EC50 [6] was > 120 µM (not active) and the EC50 [7] was > 120 µM (not active).

For `O=S(=O)(N/N=C\c1cccn1-c1ccccc1)c1ccc2ccccc2c1`, the AC50 ([8]; read-out: AC50) was 0.794 µM (inconclusive).

For `O=[N+]([O-])c1cccc(/C=N/N2CCN(Cc3ccccc3)CC2)c1`, the EC50 [5] was 14.7 µM (active), the EC50 [6] was 20.8 µM (active) and the EC50 [7] was 20.2 µM (active).

In the case of `N[C@@H](CSS(=O)(=O)O)C(=O)O`, the AC50 ([8]; read-out: AC50) was 7.94 µM (inconclusive) and the AC50 [4] was 39.8 µM (inconclusive).

In the case of `CCN(CC)CCNC(=O)c1cc(S(C)(=O)=O)ccc1OC` [TIAPRIDE], the AC50 [3] was 7.94 µM (inconclusive) and 31.6 µM (inconclusive).
